Read-outs that look alike come from different tables or passages of the source.
What was measured:
[1] = Determination of fluorescence quantum yield of tricarbocyanine dyes; format: physicochemical; conditions: 2 μM
Protocol: Compounds 6-4, 5-36, 5-29, 5-41, NIR96009, NIR96005 and ICG (see Table 1) were tested for their fluorescence quantum yields at a concentration of 2 μM in either water or plasma. It is apparent from Table 2 that a substitution in the middle of the tricarbocyanine dye improves fluorescence quantum yield in both media.

[2] = remark *see Ref. (Licha et al. 1996), cited from earlier work
tumors = conditions: cited from earlier work

Fluorescence max. (nm) In plasma [1] [nm] | Fluorescence quantum yield (%) In plasma [1] [%] | Molecule | Fluorescence quantum yield (%) In water [1] [%] | Fluorescence max. (nm) In plasma [2] [nm] | Fluorescence quantum yield (%) In plasma [2] [%] | Fluorescence quantum yield (%) In water [2] [%] | further results
813 | 9.8 | CC1(C)C(/C=C/C=C(/C=C/C=C2/N(CCCCS(=O)(=O)O)c3ccc(S(=O)(=O)[O-])cc3C2(C)C)CCS(=O)(=O)O)=[N+](CCCCS(=O)(=O)O)c2ccc(S(=O)(=O)O)cc21 [Compound 5-29] | 8.2 |  |  |  | 
 |  | CC(/C=C/C=C1/N(CCS(=O)(=O)O)c2ccc(S(=O)(=O)[O-])cc2C1(C)C)=C\C=C\C1=[N+](CCS(=O)(=O)O)c2ccc(S(=O)(=O)O)cc2C1(C)C [Compound 5-36] | 12 |  |  |  | 
799 | 19 | CC1(C)C(/C=C/C2=C(c3ccccc3)C(=C/C=C3/N(CCCCS(=O)(=O)O)c4ccc(S(=O)(=O)[O-])cc4C3(C)C)/CCC2)=[N+](CCCCS(=O)(=O)O)c2ccc(S(=O)(=O)O)cc21 [Compound 5-41] | 10 |  |  |  | 
 |  | CC1(C)C(/C=C/C=C/C=C/C=C2/N(CCCCS(=O)(=O)O)c3ccc4ccccc4c3C2(C)C)=[N+](CCCCS(=O)(=O)[O-])c2ccc3ccccc3c21 [ICG, indocyanine green] |  | 829 | 3 | 1 | Detection limit, tumor size (tumors; prior-art dye): 1 cm
 |  | CC1(C)C(/C=C/C=C/C=C/C=C2/N(CCCCS(=O)(=O)O)c3ccc(C(=O)O)cc3C2(C)C)=[N+](CCCCS(=O)(=O)[O-])c2ccc(C(=O)O)cc21 [NIR96005] |  | 795 | 7.2 | 5.6 | 
 |  | CC1(C)C(/C=C/C=C/C=C/C=C2/N(CCCCS(=O)(=O)O)c3ccc(C(=O)NC(CC(=O)O)C(=O)O)cc3C2(C)C)=[N+](CCCCS(=O)(=O)[O-])c2ccc(C(=O)NC(CC(=O)O)C(=O)O)cc21 (stereo not drawn) [NIR96009] |  | 786 | 7.8 | 5.8 | 
 |  | indocyanine green [ICG] |  |  |  |  | Size of ductal breast carcinomas that could be detected (tumors; DOT, 0.25 mg/kg body weight): ≥ 1 cm

Molecule | Fluorescence max. (nm) In plasma [1] [nm] | Fluorescence quantum yield (%) In plasma [1] [%] | Fluorescence quantum yield (%) In water [1] [%] | Fluorescence max. (nm) In plasma [2] [nm] | Fluorescence quantum yield (%) In plasma [2] [%] | Fluorescence quantum yield (%) In water [2] [%] | further results
CC(/C=C/C=C1/N(CCS(=O)(=O)O)c2ccc(S(=O)(=O)[O-])cc2C1(C)C)=C\C=C\C1=[N+](CCS(=O)(=O)O)c2ccc(S(=O)(=O)O)cc2C1(C)C [SF64] | 787 | 17 | 11 |  |  |  | 
